The text below walks through data of US9012466B2, “Substituted tricyclic pyrazolo-pyrimidine compounds” (ArQule, Inc., priority 2013, dated 2015).

One test concerns the target Full-length inactive BTK (Homo sapiens, UniProt Q06187). The experiment in a line: BTK Kinase Activity Assay. The format is biochemical. The following applies: AlphaScreen, 25 μM ATP, 30 minute pre-incubation. How it is done:
BTK Kinase Activity Assay
After a 30 minute pre-incubation at room temperature, the kinase reaction was initiated by the addition of 5 μl of an activation mixture diluted in assay buffer containing biotinylated PLCγ2 peptide, DOPS/DOPC, PtdIns(3,4,5)P3, and ATP for final concentrations of 100 nM biotinylated PLCγ2, 5.5 μM DOPS, 5.5 μM DOPC, 0.5 μM PtdIns(3,4,5)P3, and 25 μM ATP. The plates were incubated for 60 minutes at room temperature. The reactions were stopped in the dark by the addition of 10 μl stop/detection mixture prepared in assay buffer containing EDTA and AlphaScreen™ Streptavidin Donor and anti-pTYR100 Acceptor beads. The final concentrations were 10 mM EDTA and 500 ng/well of both AlphaScreen™ (Amplified Luminescent Proximity Homogeneous Assay) technology donor and acceptor beads. Assay plates were incubated for 60 minutes at room temperature in the dark, and the plates were read on a Perkin Elmer Envision Multilabel plate reader (excitation wavelength: […], emission wavelength: 570 nm).
On the technique in general: Alpha assays give light when donor and acceptor beads are brought close together.

The next test deals with T1, Full-length BTKC481S (Homo sapiens, UniProt Q06187, C481S).
T1 construct: Full-length BTKC481S was diluted in assay buffer
T1 sequence (Q06187 whole entry C481S): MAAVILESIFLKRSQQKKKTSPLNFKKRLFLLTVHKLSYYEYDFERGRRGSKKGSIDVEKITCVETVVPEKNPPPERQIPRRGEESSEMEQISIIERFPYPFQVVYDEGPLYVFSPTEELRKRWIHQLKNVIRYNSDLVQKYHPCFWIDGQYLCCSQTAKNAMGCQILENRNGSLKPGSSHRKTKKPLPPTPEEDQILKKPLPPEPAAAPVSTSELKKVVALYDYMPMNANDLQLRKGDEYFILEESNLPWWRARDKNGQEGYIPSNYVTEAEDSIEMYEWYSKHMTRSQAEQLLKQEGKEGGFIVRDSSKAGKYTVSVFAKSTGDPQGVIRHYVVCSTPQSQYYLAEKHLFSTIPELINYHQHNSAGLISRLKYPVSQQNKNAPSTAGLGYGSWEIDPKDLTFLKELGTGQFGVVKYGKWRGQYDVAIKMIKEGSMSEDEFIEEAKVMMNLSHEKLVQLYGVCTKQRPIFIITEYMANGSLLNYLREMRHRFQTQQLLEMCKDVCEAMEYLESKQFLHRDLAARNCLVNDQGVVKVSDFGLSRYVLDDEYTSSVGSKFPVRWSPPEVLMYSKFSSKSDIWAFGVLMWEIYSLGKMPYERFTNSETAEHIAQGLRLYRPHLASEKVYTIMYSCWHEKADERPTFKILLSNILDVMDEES
The experiment in a line: BTKC481S Kinase Activity Assay. The format is biochemical. Conditions: AlphaScreen, 60 μM ATP; test concentration not given. On the procedure:
BTKC481S Kinase Activity Assay
Test inhibitors and controls (Staurosporine) were prepared in 10% DMSO at 10-fold the desired final concentration, and added to each well of a reaction plate (Corning 96-well half-area solid white nonbinding surface plate) in a volume of 2.5 μl. Full-length BTKC481S was diluted in assay buffer (50 mM Tris, pH 8.0, 0.02 mg/ml BSA, 10 mM MgCl2, 1 mM EGTA, 10% glycerol, 1 mM DTT, 1 mM β-glycerophosphate, and 1 mM NaF) and added to each well in a volume of 17.5 μl for a final concentration in the 25 μl reaction of 10 nM. After a 30 minute pre-incubation at room temperature, the kinase reaction was initiated by the addition of 5 μl of an activation mixture diluted in assay buffer containing biotinylated PLCγ2 peptide, and ATP for final concentrations of 125 nM biotinylated PLCγ2, and 60 μM ATP. The plates were incubated for 60 minutes at room temperature. The reactions were stopped in the dark by the addition of 10 μl stop/detection mixture prepared in assay buffer containing EDTA, Staurosporine and AlphaScreen™ Streptavidin Donor and anti-pTYR100 Acceptor beads. The final concentrations were 15 mM EDTA, 1 μM Staurosporine and 500 ng/well of both AlphaScreen™ (Amplified Luminescent Proximity Homogeneous Assay) technology donor and acceptor beads. Assay plates were incubated for 60 minutes at room temperature in the dark, and the plates were read on a Perkin Elmer Envision Multilabel plate reader (excitation wavelength: […], emission wavelength: 570 nm).

The test system of the next test is TMD-8. The experiment in a line: Anti Proliferation Assay (MTS), TMD-8. The format is cell-based. Conditions: Homo sapiens, TMD8, TMD-8 cells, 72 hours treatment. On the procedure:
(§1) Cell survival was determined by the MTS assay. Briefly, cells were plated in a 96-well plate at 2,000-10,000 cells per well, cultured for 24 hours in complete growth medium, and then treated with various drugs and drug combinations for 72 hours. MTS/PMS was added and incubated for 4 hour, followed by assessment of cell viability using the microplate reader (absorbance at 490 nm). Data were normalized to untreated controls and analyzed with Microsoft Excel.

A further test relates to Rec-1. The test is described as follows: Anti Proliferation Assay (MTS), Rec-1. Conditions: Homo sapiens, Rec1, Rec-1 cells, 72 hours treatment. In kind it is cell-based. On the procedure: as §1

Chain of Full-length inactive BTK (Q06187 whole entry): as the sequence (Q06187 whole entry C481S) above, with S481C counted along it

What is called IC50 is the concentration needed to halve the response being measured. In the case of `CN1C[C@H](CNc2ncc3c4n[nH]cc4c(=O)n(-c4ccccc4F)c3n2)Oc2ccccc21` [Compound 343, 5-(2-fluorophenyl)-7-({[(2S)-4-methyl-3,4-dihydro-2H-1,4-benzoxazin-2-yl]methyl}amino)-2,5-dihydro-4H-pyrazolo[3′,4′:4,5]pyrido[2,3-d]pyrimidin-4-one], the 50% inhibitory concentration (IC50) at Full-length inactive BTK came to 0.014 µM; with TMD-8, 0.6 µM; in the test with Rec-1, 1.4 µM. Also, the “BTK (C481S) (% inhibition)” value at Full-length BTKC481S is reported as 100%.

For the molecule `CN1CC(CNc2ncc3c4n[nH]cc4c(=O)n(-c4ccccc4F)c3n2)Oc2ccccc21` (stereo not shown) [Compound 229, 5-(2-fluorophenyl)-7-(((4-methyl-3,4-dihydro-2H-benzo[b][1,4]oxazin-2-yl)methyl)amino)-2H-pyrazolo[3′,4′:4,5]pyrido[2,3-d]pyrimidin-4(5H)-one], the IC50 on Full-length inactive BTK turned out to be 0.034 µM; in the test with TMD-8 it was 1.4 µM; with Rec-1, 2.6 µM. Besides, the “BTK (C481S) (% inhibition)” value at Full-length BTKC481S came to 99.2%.

Turning to `Cc1[nH]nc2c1c(=O)n(-c1ccccc1)c1nc(NC[C@H]3COc4ccccc4O3)ncc21` [Compound 210, 7-{[(2S)-2,3-dihydro-1,4-benzodioxin-2-ylmethyl]amino}-3-methyl-5-phenyl-2,5-dihydro-4H-pyrazolo[3′,′:4,5]pyrido[2,3-d]pyrimidin-4-one], the 50% inhibitory concentration (IC50) on Full-length inactive BTK was 0.14 µM; in the test with TMD-8, 7.1 µM; with Rec-1 it was 6.8 µM. On Full-length BTKC481S, the “BTK (C481S) (% inhibition)” value was determined as 73.3%.

Take `CN(CC1COc2ccccc2O1)c1ncc2c3[nH]nc(N)c3c(=O)n(-c3ccccc3)c2n1` (stereo not shown) [Compound 223, 3-amino-7-[(2,3-dihydro-1,4-benzodioxin-2-ylmethyl)(methyl)amino]-5-phenyl-1,5-dihydro-4H-pyrazolo[3′,4′:4,5]pyrido[2,3-d]pyrimidin-4-one]: the IC50 against Full-length inactive BTK worked out at 0.038 µM; with TMD-8, 11.3 µM; in the test on Rec-1 it was 6.2 µM. Further, the “BTK (C481S) (% inhibition)” value at Full-length BTKC481S stood at 98.2%.

`O=c1[nH]nc2c3cnc(NCC4COc5ccccc5O4)nc3n(-c3ccccc3)cc1-2` (stereo not shown) [Compound 356, 7-(((2,3-dihydrobenzo[b][1,4]dioxin-2-yl)methyl)amino)-5-phenyl-2H-pyrazolo[3′,′:4,5]pyrido[2,3-d]pyrimidin-3(5H)-one]: the IC50 was 0.33 µM on Full-length inactive BTK, 23 µM in the test on TMD-8 and 18.5 µM with Rec-1. In addition, at Full-length BTKC481S, the “BTK (C481S) (% inhibition)” value was 53.7%.

Regarding `O=c1c2c[nH]nc2c2cnc(NCC3COc4ccccc4O3)nc2n1-c1ccccc1` (stereo not shown) [Compound 14, 7-(((2,3-dihydrobenzo[b][1,4]dioxin-2-yl)methyl)amino)-5-phenyl-2H-pyrazolo[3′,′:4,5]pyrido[2,3-d]pyrimidin-4(5H)-one], the figures for the concentration for half-maximal inhibition (IC50) against Full-length inactive BTK, in the test on TMD-8 and in the test with Rec-1 were 0.24 µM, 4 µM and 4.3 µM, respectively. Further, the “BTK (C481S) (% inhibition)” value on Full-length BTKC481S is recorded as 92.8%.

With `O=c1c2c[nH]nc2c2cnc(NCC3CNc4ccccc4O3)nc2n1-c1ccccc1F` (stereo not shown) [Compound 346, 7-[(3,4-dihydro-2H-1,4-benzoxazin-2-ylmethyl)amino]-5-(2-fluorophenyl)-2,5-dihydro-4H-pyrazolo[3′,4′:4,5]pyrido[2,3-d]pyrimidin-4-one], the IC50 at Full-length inactive BTK was found to be 0.033 µM; in the test on TMD-8, 9.6 µM; with Rec-1, 32 µM. The “BTK (C481S) (% inhibition)” value at Full-length BTKC481S was 85.2%.

Take `Cc1c2c(=O)[nH]nc-2c2cnc(NC[C@H]3COc4ccccc4O3)nc2n1-c1ccccc1` [Compound 359, 7-{[(2S)-2,3-dihydro-1,4-benzodioxin-2-ylmethyl]amino}-4-methyl-5-phenyl-2,5-dihydro-3H-pyrazolo[3′,′:4,5]pyrido[2,3-d]pyrimidin-3-one]: the values for the half-maximal inhibitory concentration (IC50) at Full-length inactive BTK, with TMD-8 and in the test on Rec-1 were 0.033 µM, 27 µM and 23.7 µM, respectively. Moreover, the “BTK (C481S) (% inhibition)” value at Full-length BTKC481S is reported as 59%.

Turning to `CN1C[C@H](CNc2ncc3c4[nH]nc(N)c4c(=O)n(-c4ccccc4)c3n2)Oc2cc(F)ccc21` [Compound 345, 3-amino-7-({[(2S)-7-fluoro-4-methyl-3,4-dihydro-2H-1,4-benzoxazin-2-yl]methyl}amino)-5-phenyl-1,5-dihydro-4H-pyrazolo[3′,4′:4,5]pyrido[2,3-d]pyrimidin-4-one], the IC50 is 0.0046 µM at Full-length inactive BTK, 3.2 µM with TMD-8 and 14.7 µM in the test with Rec-1. In addition, the “BTK (C481S) (% inhibition)” value on Full-length BTKC481S is 36.1%.

For the molecule `CN(C[C@H]1CN(C)c2ccccc2O1)c1ncc2c3[nH]nc(N)c3c(=O)n(-c3ccccc3F)c2n1` [Compound 342, 3-amino-5-(2-fluorophenyl)-7-(methyl{[(2R)-4-methyl-3,4-dihydro-2H-1,4-benzoxazin-2-yl]methyl}amino)-1,5-dihydro-4H-pyrazolo[3′,4′:4,5]pyrido[2,3-d]pyrimidin-4-one], the concentration for half-maximal inhibition (IC50) against Full-length inactive BTK was found to be 0.011 µM; in the test with TMD-8, 0.7 µM; in the test with Rec-1, 2.6 µM. In addition, the “BTK (C481S) (% inhibition)” value on Full-length BTKC481S worked out at 101%.
